According to PubChem BioAssay (NCI):
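Where inhibition never reached the appropriate level, the endpoint shown equals the highest concentration tested. Otherwise, values were interpolated linearly from a five-concentration, 48-hour dose response in 96-well plates. At the GI50, growth is halved. TGI: concentration producing complete growth inhibition.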

Key:
Assay in all cases: growth of human tumour cells (NCI), 48 h
HL-60(TB) leukemia = tested on: HL-60(TB) leukemia
786-0 renal = tested on: 786-0 renal
SNB-19 CNS = tested on: SNB-19 CNS
NCI-H522 lung = tested on: NCI-H522 lung
SF-539 CNS = tested on: SF-539 CNS
COLO 205 colon = tested on: COLO 205 colon
SK-MEL-2 melanoma = tested on: SK-MEL-2 melanoma
SN12C renal = tested on: SN12C renal
MALME-3M melanoma = tested on: MALME-3M melanoma
HCT-15 colon = tested on: HCT-15 colon

Structure (SMILES)	GI50 (HL-60(TB) leukemia)	TGI (HL-60(TB) leukemia)	GI50 (786-0 renal)	TGI (786-0 renal)	GI50 (SNB-19 CNS)	TGI (SNB-19 CNS)	GI50 (NCI-H522 lung)	TGI (NCI-H522 lung)	GI50 (SF-539 CNS)	TGI (SF-539 CNS)	GI50 (COLO 205 colon)	TGI (COLO 205 colon)	GI50 (SK-MEL-2 melanoma)	TGI (SK-MEL-2 melanoma)	GI50 (SN12C renal)	TGI (SN12C renal)	GI50 (MALME-3M melanoma)	TGI (MALME-3M melanoma)	GI50 (HCT-15 colon)	TGI (HCT-15 colon)
O=C1c2cccc3c(N4CCN(c5ccc6c7c(cccc57)C(=O)N(CCN5CCNCC5)C6=O)CC4)ccc(c23)C(=O)N1CCN1CCNCC1	4.19 µM	20.6 µM	1.84 µM	4.32 µM	16.1 µM	61.6 µM	18 µM	44.2 µM	13 µM	34.1 µM	8.87 µM	> 100 µM	24.7 µM	67.5 µM	7.46 µM	23.2 µM	17.5 µM	40 µM	11.3 µM	31.3 µM
Clc1ccc2c(NCCCN3CCN(c4nc(-n5ccnc5)nc5ccccc45)CC3)ccnc2c1	2.17 µM	5.18 µM	1.66 µM	3.21 µM	2.55 µM	6.49 µM	–	> 22.3 µM	1.81 µM	3.34 µM	> 100 µM	> 100 µM	12.3 µM	> 22.1 µM	> 100 µM	> 100 µM	1.91 µM	3.56 µM	1.61 µM	3.8 µM
CNC(=O)OCc1nc(S(C)=O)n(C)c1COC(=O)NC (centres undefined)	–	> 100 µM	–	> 100 µM	–	> 100 µM	–	> 100 µM	–	> 100 µM	–	> 62.6 µM	–	> 100 µM	–	> 100 µM	–	> 100 µM	–	> 100 µM
CC1CC(=O)C(C(O)CC2CC(=O)N(c3ccccc3)C(=O)C2)C(C)C1 (centres undefined)	–	> 100 µM	–	> 100 µM	–	> 100 µM	–	> 100 µM	–	> 100 µM	–	> 100 µM	–	–	–	> 100 µM	–	> 100 µM	–	–
COCCN1C2=CCCCC2=Nc2c(N)nc(N)nc21	–	> 100 µM	–	> 100 µM	–	> 100 µM	–	> 100 µM	–	> 100 µM	–	> 100 µM	–	> 100 µM	–	> 100 µM	–	> 100 µM	–	> 100 µM
COc1cc2c(cc1OC)-c1c(cc(OC)c(OC)c1OC)C2=O	–	> 100 µM	–	> 100 µM	–	> 100 µM	–	> 100 µM	–	> 100 µM	–	> 100 µM	–	–	–	> 100 µM	–	> 100 µM	–	> 100 µM
CN/N=C(\C)CC(=O)Nc1cccc(Cl)c1C	–	> 100 µM	–	> 100 µM	–	> 100 µM	–	> 100 µM	–	> 100 µM	–	> 100 µM	–	> 100 µM	–	> 100 µM	–	> 100 µM	–	> 100 µM
O=C1OC(c2ccc([N+](=O)[O-])cc2)=N/C1=C\c1ccc(O)cc1	–	> 100 µM	–	> 100 µM	–	> 100 µM	–	> 100 µM	–	> 100 µM	–	> 100 µM	–	> 100 µM	–	> 100 µM	–	> 100 µM	–	> 100 µM
Cc1ccnc2c1NC(=O)c1cccnc1N2C1CC1	> 100 µM	> 100 µM	> 100 µM	> 100 µM	> 100 µM	> 100 µM	> 100 µM	> 100 µM	> 100 µM	> 100 µM	> 100 µM	> 100 µM	> 100 µM	> 100 µM	> 100 µM	> 100 µM	–	–	> 100 µM	> 100 µM
Nc1ccc(-c2ccc(-c3nc4ccccc4[nH]3)cc2)cc1	–	–	8.78 µM	84.9 µM	18.4 µM	> 100 µM	1.1 µM	> 53.9 µM	0.208 µM	–	0.32 µM	–	1.88 µM	> 100 µM	19.6 µM	> 100 µM	7.19 µM	> 52.7 µM	8.09 µM	> 100 µM
C[C@]12CC[C@H]3[C@@H](C[C@@H]4SC(Nc5cccc(F)c5)=N[C@@]45CC(=O)CC[C@]35C)[C@@H]1CCC2=O	2.73 µM	8 µM	1.43 µM	2.83 µM	2.33 µM	5.69 µM	1.63 µM	3.06 µM	1.34 µM	2.94 µM	2.16 µM	4.81 µM	1.86 µM	5.2 µM	2.36 µM	6.02 µM	1.94 µM	5.04 µM	1.58 µM	4.08 µM
Cc1ccccc1NC(=O)C(=O)Cc1nc2ccccc2s1	–	> 100 µM	–	> 100 µM	–	> 100 µM	–	> 100 µM	–	> 100 µM	–	> 100 µM	–	> 100 µM	–	> 100 µM	–	> 100 µM	–	> 100 µM
O=C(O)C1Cc2nc[nH]c2CN1 (centres undefined)	–	> 100 µM	–	> 100 µM	–	> 100 µM	–	> 100 µM	–	> 100 µM	–	> 100 µM	–	> 100 µM	–	> 100 µM	–	> 100 µM	–	> 100 µM
COc1ccc(C(=O)C(C(=O)C(=O)Nc2nc3ccc(OC)cc3s2)c2ccc(OC)cc2)cc1 (centres undefined)	–	> 100 µM	–	> 100 µM	–	> 100 µM	–	–	–	> 100 µM	–	> 100 µM	–	> 100 µM	–	> 100 µM	–	> 100 µM	–	> 100 µM
COC1OC(C)C(OC(=O)C(C)(C)C)C(C)(O)C1O (centres undefined)	–	> 100 µM	–	> 100 µM	–	> 100 µM	–	> 100 µM	–	> 100 µM	–	> 100 µM	–	–	–	> 100 µM	–	> 100 µM	–	> 100 µM
Oc1cccc(C2SCc3nc4ccccc4n32)c1 (centres undefined)	–	> 100 µM	–	> 100 µM	–	> 100 µM	–	> 100 µM	–	> 100 µM	–	> 100 µM	–	> 100 µM	–	> 100 µM	–	> 100 µM	–	–
COC(=O)C(C(=O)C(=O)Nc1ccccc1OC)c1csc(-n2nc(-c3ccccc3)cc2-c2ccccc2)n1 (centres undefined)	–	> 100 µM	–	> 100 µM	–	> 100 µM	–	> 100 µM	–	–	–	> 100 µM	–	–	–	> 100 µM	–	> 100 µM	–	> 100 µM
CCCCCN(CCCCC)C(=O)[C@@H](CCC(=O)OCc1ccccc1)NC(=O)c1cc2ccccc2[nH]1	–	–	–	> 100 µM	–	> 100 µM	–	> 100 µM	–	> 100 µM	–	> 100 µM	–	> 100 µM	–	> 100 µM	–	> 100 µM	–	> 100 µM
